Literature values in patent US20260048046A1, “METHOD FOR IMPROVING GROWTH PERFORMANCE IN FEEDLOT CATTLE” (Elanco US Inc., priority 2022, published 2026).
Where two headings read alike, the source gives them in different places.

Tested on: cattle
Conditions: zilpaterol 8.3 mg/kg diet DM, Holland et al. (2010), cited from earlier work

CC(C)NC1CCn2c(=O)[nH]c3cccc(c32)C1O (centres unmarked) [zilpaterol]
Difference in HCW between zilpaterol fed and non-treated cattle (3 d removal prior to harvest): 14 kg
Difference in HCW between zilpaterol fed and non-treated cattle (10 d removal prior to harvest): 17 kg
Difference in HCW between zilpaterol fed and non-treated cattle (17 d removal prior to harvest): 5 kg
Difference in HCW between zilpaterol fed and non-treated cattle (24 d removal prior to harvest): 6 kg
Final and carcass-adjusted final BW, effect of feeding zilpaterol (P≥0.14): not affected
